Laboratory results as given in US20220041641A1, “QUATERNARY AMMONIUM SALTS AS INHIBITORS OF TRIMETHYLAMINE PRODUCTION” (Senda Biosciences, Inc., priority 2018, published 2022).
Structures can show the parent of a compound that is named as a salt.

Experiments:
[1] = format: in vitro ADME; details: simulated gi fluid, 1 µM, pH 6.7
Description: This assay was used to assess the stability of a conjugate in a small intestine.
Phosphate buffer was prepared by dissolving 0.42 g of sodium hydroxide pellets and 3.95 g of monobasic sodium phosphate monohydrate and 6.19 g of sodium chloride in ultrapure water (MilliQ®, Millipore Sigma, Darmstadt, Germany). The pH was adjusted to 6.7 using aq. HCl and aq. NaOH, as necessary, and the solution was diluted with ultrapure water to produce 1 L of the pH 6.7 buffer.
112 mg FaSSIF powder (Biorelevant™, London, UK) was dissolved in 50 mL of the pH 6.7 buffer. 2 to 3 mL of the resulting solution were then added to 500 mg pancreatin (Millipore Sigma, Darmstadt, Germany). The resulting mixture was agitated by finger tapping the vessel containing the mixture until milky suspension formed. At this time, the remainder of the 50 mL FaSSiF/pH 6.7 buffer solution was added. The resulting suspension was flipped upside down 10 times to produce SIF, which was used fresh.
(§1) Test compounds were dissolved in DMSO stock to 1 mM. An aliquot of the DMSO stock solution was removed and diluted in the SIF media in 15 mL falcon tubes to produce a mixture with a tested compound concentration of 1 μM. A 1 mL aliquot was immediately removed and diluted once with 1 volume of acetonitrile for T0 timepoint. The mixture was sealed and agitated at 37° C. in an incubator. Aliquots (1 mL) were removed at regular intervals and immediately quenched by the addition of 1 volume of acetonitrile. The resulting samples were analyzed by LCMS to determine degradation rates.

[2] = format: in vitro ADME; details: 1 µM
Description: This assay was used to assess the stability of a conjugate in a large intestine.
All experiments were performed in an anaerobic chamber containing 90% nitrogen, 5% hydrogen and 5% carbon dioxide. Colonic material was resuspended as a slurry (15% w/v final concentration) in pre-reduced, anaerobically sterilized dilution blanks (Anaerobe Systems AS-908). The colonic material was then inoculated into 96 well plates containing YCFAC media (Anaerobe Systems AS-680, 6.7 μL slurry into 1 mL total media). A compound was added to each individual well to reach a final analyte concentration of 1 μM, and the material was mixed by pipetting. Each sample was removed after set timepoints (0, 120, 240, 480, 1440, 2880 minutes after initiation of the assay), quenched with acetonitrile containing internal standard, and analyzed by LCMS.

[3] = format: in vitro ADME; details: simulated gi fluid, 1 µM, pH 1.6
Description: This assay was used to assess the stability of a conjugate in a stomach.
Medium was prepared by dissolving 2 g of sodium chloride in 0.6 L in ultrapure water (MilliQ®, Millipore Sigma, Darmstadt, Germany). The pH was adjusted to 1.6 with 1N hydrochloric acid, and the volume was then adjusted to 1 L with purified water.
60 mg FaSSIF powder (Biorelevant™, London, UK) were dissolved in 500 mL buffer (above). Pepsin was added (0.1 mg/mL) (Millipore Sigma, Darmstadt, Germany), and the solution was stirred. The resulting SGF media were used fresh for each experiment.
as §1, with “SGF Media” for “SIF media”, “generate” for “produce”, “total” for “mixture with a tested”, “mixed” for “agitated”, “rates in SGF.” for “rates.”

CutC/D enzyme = assay: Acute mouse model (plasma TMAO on choline diet); format: in vivo, male C57BL/6 mice
Description: The following acute mouse model may be used to determine inhibition of the CutC/D enzyme and thus the inhibition of the formation of trimethylamine (TMA) from choline.
On day 1, male C57BL/6 mice were given a chemically defined diet (Tekland Global Rodent Diet 2018) containing 1.0% choline (g/g) for the duration of the experiment. Concurrently on day 1, mice were orally gavaged with 200 μL of compounds of interest (formulated in water). Mice were orally gavaged with the compounds and vehicle control again on day 2 and day 3 at a fixed time. Twenty hours after the last gavage, mice were sacrificed, and plasma was collected and prepared for detection of trimethylamine-N-oxide (TMAO) via liquid chromatography with on-line tandem mass spectrometry (LC-MS/MS). Food consumption and mouse weight were measured each day.
Plasma samples were prepared for LCMS as follows: An aliquot of 20 μL plasma sample was protein precipitated with 200 μL internal standard solution (100 ng/mL Labetalol & 100 ng/mL Tolbutamide & 100 ng/mL Diclofenac in acetonitrile, the mixture was vortex-mixed and centrifuged at 4000 rpm for 15 min, 4° C. An aliquot of 100 μL supernatant was transferred to the sample plate for LCMS injection. 1 μL of sample was injected onto an LC column for TMAO LCMS analysis.
Concentrations of TMAO were determined with a calibration curve ranging 0.05-100 μM for d9-TMAO in control plasma.

[4] = target: CutC from Proteus mirabilis (Proteus mirabilis, UniProt B4EYG1); assay: Cell-based assay for TMA production from a native producer (P. mirabilis); details: d9-TMA from 1 mM d9-choline, 5 h, 37° C.; value 10 given when no fit or % TMA remaining at 10 μM higher than 15%; read-out: Average IC50 Whole cell P. mirabilis
Sequence of CutC from Proteus mirabilis (B4EYG1 entry or part of it): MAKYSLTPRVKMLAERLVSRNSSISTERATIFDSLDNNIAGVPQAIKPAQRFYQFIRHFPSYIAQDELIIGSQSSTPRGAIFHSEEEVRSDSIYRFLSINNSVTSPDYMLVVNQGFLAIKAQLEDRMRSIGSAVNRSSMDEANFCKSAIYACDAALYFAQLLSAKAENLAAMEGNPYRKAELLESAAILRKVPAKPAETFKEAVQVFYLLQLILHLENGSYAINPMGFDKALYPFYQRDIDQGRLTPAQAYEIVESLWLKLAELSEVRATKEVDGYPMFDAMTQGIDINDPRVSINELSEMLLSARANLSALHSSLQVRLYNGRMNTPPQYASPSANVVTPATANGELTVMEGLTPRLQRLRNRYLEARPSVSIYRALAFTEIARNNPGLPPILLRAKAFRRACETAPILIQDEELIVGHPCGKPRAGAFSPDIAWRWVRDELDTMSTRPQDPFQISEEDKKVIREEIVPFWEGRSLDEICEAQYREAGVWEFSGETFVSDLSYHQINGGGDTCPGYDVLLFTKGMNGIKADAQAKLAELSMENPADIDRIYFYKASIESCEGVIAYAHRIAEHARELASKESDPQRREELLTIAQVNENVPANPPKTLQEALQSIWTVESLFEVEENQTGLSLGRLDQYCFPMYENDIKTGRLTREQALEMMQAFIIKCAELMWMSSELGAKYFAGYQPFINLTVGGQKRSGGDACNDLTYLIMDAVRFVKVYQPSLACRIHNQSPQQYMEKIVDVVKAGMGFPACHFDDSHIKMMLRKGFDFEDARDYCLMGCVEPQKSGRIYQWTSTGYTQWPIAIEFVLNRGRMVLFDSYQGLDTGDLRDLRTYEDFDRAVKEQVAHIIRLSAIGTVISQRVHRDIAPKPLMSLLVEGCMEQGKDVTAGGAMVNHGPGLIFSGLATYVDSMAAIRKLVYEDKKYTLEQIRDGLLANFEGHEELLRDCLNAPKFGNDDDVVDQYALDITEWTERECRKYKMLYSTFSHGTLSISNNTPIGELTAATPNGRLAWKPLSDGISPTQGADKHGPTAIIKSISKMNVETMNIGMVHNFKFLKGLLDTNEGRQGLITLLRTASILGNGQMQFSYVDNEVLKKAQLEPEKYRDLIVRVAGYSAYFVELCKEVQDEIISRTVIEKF
Sequence of CutC from Proteus mirabilis (B4EYG0 entry or part of it, further chain): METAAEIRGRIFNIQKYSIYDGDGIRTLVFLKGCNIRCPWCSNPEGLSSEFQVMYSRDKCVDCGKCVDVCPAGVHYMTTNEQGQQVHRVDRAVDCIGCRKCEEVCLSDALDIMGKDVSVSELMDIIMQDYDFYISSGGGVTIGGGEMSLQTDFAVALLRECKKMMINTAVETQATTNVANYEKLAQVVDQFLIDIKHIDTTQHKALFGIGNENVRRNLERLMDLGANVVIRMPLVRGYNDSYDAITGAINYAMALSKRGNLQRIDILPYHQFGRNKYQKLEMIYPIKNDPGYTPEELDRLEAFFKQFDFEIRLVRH
In short: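 Overnight anaerobic cultures of P. mirabilis or C. sporogenes, grown in BHI with 1 mM choline, were diluted and given 1 mM (trimethyl-d9)-choline plus compound at 10 μM final. After 5 h at 37° C., d9-TMA was quantified by LCMS.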

[5] = Caco-2 permeability assay; format: in vitro ADME; details: human, Caco-2, pH 7.4
Description: Preparation of Caco-2 Cells: 50 μL and 25 mL of cell culture medium were added to each well of the Transwell insert and reservoir, respectively. The HTS transwell plates were incubated at 37° C., 5% CO2 for 1 hour before cell seeding. […] Cell culture medium was replaced every other day, beginning no later than 24 hours after initial plating.
Assessment of Cell Monolayer Integrity: Medium was removed from the reservoir and each Transwell insert and replaced with prewarmed fresh culture medium. Transepithelial electrical resistance (TEER) across the monolayer was measured using Millicell Epithelial Volt-Ohm measuring system (Millipore, USA). The Plate was returned to the incubator once the measurement was done. The TEER value was calculated according to the following equation: […]
Preparation of Solutions: 2 mM stock solutions in DMSO of control compounds were prepared and diluted with HBSS (10 mM HEPES, pH 7.4) to get 10 μM working solution. 0.2 mM stock solutions of test compounds in DMSO were prepared and diluted with HBSS (10 mM HEPES, pH 7.4 with 0.5% BSA) to get 1 μM working solution. Metoprolol, erythromycin and cimetidine were used as control compounds.
The Caco-2 plate was removed from the incubator. The monolayer was washed twice with pre-warmed HBSS (10 mM HEPES, pH 7.4). The plate was incubated at 37° C. for 30 minutes. To determine the rate of drug transport in the apical to basolateral direction, 125 μL of the working solution was added to the Transwell insert (apical compartment). A 50 μL sample was transferred immediately from the apical compartment to 200 μL of acetonitrile containing IS (100 nM alprazolam, 200 nM Caffeine and 100 nM tolbutamide) in a new 96-well plate as the initial donor sample (A-B) and it was vortexed at 1000 rpm for 10 minutes. The wells in the receiver plate (basolateral compartment) were filled with 235 μL of transport buffer. To determine the rate of drug transport in the basolateral to apical direction, 285 μL of the working solution were added to the receiver plate wells (basolateral compartment). A 50 μL sample was transferred immediately from the basolateral compartment to 200 μL of acetonitrile containing IS (100 nM alprazolam, 200 nM Caffeine and 100 nM tolbutamide) in a new 96-well plate as the initial donor sample (B-A) and it was vortexed at 1000 rpm for 10 minutes. The Transwell insert (apical compartment) was filled with 75 μL of transport buffer. The apical to basolateral direction and the basolateral to apical direction need to be done at the same time. The plates were incubated at 37° C. for 2 hours. At the end of the incubation, 50 μL samples from donor sides (apical compartment for Ap→Bl flux, and basolateral compartment for B1→Ap) and receiver sides (basolateral compartment for Ap→Bl flux, and apical compartment for B1→Ap) were transferred to wells of a new 96-well plate, followed by the addition of 4 volume of acetonitrile containing IS (100 nM alprazolam, 200 nM Caffeine and 100 nM tolbutamide). Samples were vortexed for 10 minutes, 50 μL samples were transferred to wells of a new 96-well plate, followed by the addition of 50 μL Hepes and 200 μL IS. All samples were vortexed for 10 minutes, and then centrifuged at 3,220 g for 40 minutes. An aliquot of 150 μL of the supernatant was mixed with an appropriate volume of ultra-pure water before LC-MS/MS analysis.
Apparent permeability (Papp) can be calculated for drug transport assays using the following equation: […]
Papp is apparent permeability (cm/s×10^−6);
Papp (B-A) indicates the apparent permeability coefficient in basolateral to apical direction, and
Papp (A-B) indicates the apparent permeability coefficient in apical to basolateral direction.

in vivo = assay: in vivo; design: species or system Sprague-Dawley rats; details: Sprague-Dawley, rat
Description: Sprague-Dawley rats (three rats per compound) were treated with a single intravenous (IV) 1 mg/kg dose or orally (PO) a single 10 mg/kg dose. Plasma concentrations of the conjugates were determined by LCMS at 5 minutes, 15 minutes, 30 minutes, 1 hour, 2 hours, 4 hours, 8 and 24 hours post compound administration. […] In addition, the plasma exposure and bioavailability of the active agent of was lower when dosed as a conjugate instead of the active agent alone.

For `C#CC[N+](C)(C)CC(=O)OC[C@H]1OC(OC(C)=O)[C@H](OC(C)=O)[C@@H](OC(C)=O)[C@@H]1OC(C)=O.O=C([O-])C(F)(F)F` (stereo partly drawn) [Compound 304, N,N-dimethyl-N-(2-oxo-2-(((2R,3R,4S,5R)-3,4,5,6-tetraacetoxytetrahydro-2H-pyran-2-yl)methoxy)ethyl)prop-2-yn-1-aminium Trifluoroacetate], the “Assay 2- FaSSIF Stability: % Remaining at 4 hr” value [1] was 13.44%, the “Assay 3- Colonic Material Stability Assay % Remaining at 24 hr” value [2] was 0.94% and the “Assay 1- FaSSGF Stability: % Remaining at 1 hr” value [3] was 114.28%.

In the case of `C#CC[N+](C)(C)CC(=O)O[C@@H]1O[C@H](COC(C)=O)[C@@H](OC(C)=O)[C@H](OC(C)=O)[C@H]1OC(C)=O` [Compound 303, N,N-dimethyl-N-(2-oxo-2-(((2S,3R,4S,5R,6R)-3,4,5-triacetoxy-6-(acetoxymethyl)tetrahydro-2H-pyran-2-yl)oxy)ethyl)prop-2-yn-1-aminium Trifluoroacetate], the “Assay 2- FaSSIF Stability: % Remaining at 4 hr” value [1] is reported as 0.03%, the “Assay 3- Colonic Material Stability Assay % Remaining at 24 hr” value [2] is reported as 0.16% and the “Assay 1- FaSSGF Stability: % Remaining at 1 hr” value [3] is reported as 60.49%.

For `C#CC[N+](C)(C)CCO[C@@H]1O[C@H](COC(C)=O)[C@@H](OC(C)=O)[C@H](OC(C)=O)[C@H]1OC(C)=O.[I-]` [Compound 7, N,N-dimethyl-N-(2-(((2R,3R,4S,5R,6R)-3,4,5-triacetoxy-6-(acetoxymethyl)tetrahydro-2H-pyran-2-yl)oxy)ethyl)prop-2-yn-1-aminium Iodide], the “% change from vehicle control + choline diet” value (“% change” for short) (CutC/D enzyme; Table 4a, 358 mg/kg oral gavage days 1-3) was −79.95%, the “Mean plasma TMAO” value (CutC/D enzyme; Table 4a, 358 mg/kg oral gavage days 1-3, plasma 20 h after last gavage) was 6.90 µM and the “% change” value (CutC/D enzyme; Table 4c, 35.8 mg/kg oral gavage days 1-3) was −2.97%. For the same molecule, the “Mean plasma TMAO” value (CutC/D enzyme; Table 4c, 35.8 mg/kg oral gavage days 1-3, plasma 20 h after last gavage) was 20.4 µM, the “% change” value (CutC/D enzyme; Table 4c, 107 mg/kg oral gavage days 1-3) was −24.83% and the “Mean plasma TMAO” value (CutC/D enzyme; Table 4c, 107 mg/kg oral gavage days 1-3, plasma 20 h after last gavage) was 15.8 µM. For the same molecule, the “% change” value (CutC/D enzyme; Table 4c, 358 mg/kg oral gavage days 1-3) was −69.46%, the “Mean plasma TMAO” value (CutC/D enzyme; Table 4c, 358 mg/kg oral gavage days 1-3, plasma 20 h after last gavage) was 6.41 µM and the IC50 [4] was 3.16 µM. For the same molecule, the Papp A→B at 2 h, 1 µM [5] was 0.1 ×10⁻⁶ cm/s, the Papp B→A at 2 h, 1 µM [5] was 0.15 ×10⁻⁶ cm/s and the Cmax (in vivo; iv, 1 mg/kg) was 19.7 µM. For the same molecule, the Cmax (in vivo; po, 10 mg/kg) was 0.0162 µM and the bioavailability (in vivo; po, 10 mg/kg) was 1.1%.

With `C#CC[N+](C)(C)CCO[C@@H]1CO[C@H]2[C@@H]1OC[C@@H]2O` [Compound 72, N-(2-(((3R,3aR,6S,6aR)-6-hydroxyhexahydrofuro[3,2-b]furan-3-yl)oxy)ethyl)-N,N-dimethylprop-2-yn-1-aminium trifluoroacetate] the IC50 [4] was no less than 10 µM, the “Assay 3- Colonic Material Stability Assay % Remaining at 24 hr” value [2] was 110% and the “Assay 1- FaSSGF Stability: % Remaining at 1 hr” value [3] was 102.71%.

For `CC(=O)OC[C@H]1O[C@@H](OCC[N+](C)(CF)C2CC2)[C@H](OC(C)=O)[C@@H](OC(C)=O)[C@@H]1OC(C)=O.[I-]` (stereo partly drawn) [Compound 86, N-(fluoromethyl)-N-methyl-N-(2-{[(2R,3R,4S,5R,6R)-3,4,5-tris(acetyloxy)-6-[(acetyloxy)methyl]oxan-2-yl]oxy}ethyl)cyclopropanaminium Iodide], the “% change” value (CutC/D enzyme; Table 4g, 37.3 mg/kg oral gavage days 1-3) was −33%, the “Mean plasma TMAO” value (CutC/D enzyme; Table 4g, 37.3 mg/kg oral gavage days 1-3, plasma 20 h after last gavage) was 18.6 µM and the “% change” value (CutC/D enzyme; Table 4g, 112 mg/kg oral gavage days 1-3) was −83%. The “Mean plasma TMAO” value (CutC/D enzyme; Table 4g, 112 mg/kg oral gavage days 1-3, plasma 20 h after last gavage) was 4.72 µM, the IC50 [4] was no less than 10 µM and the “Assay 3- Colonic Material Stability Assay % Remaining at 24 hr” value [2] was 56%.
